# According to patent publication US8735406B2, “8-oxodihydropurine derivative” (Dainippon Sumitomo Pharma Co., Ltd., priority 2009, dated 2014):
# Like-named read-outs stand apart in the source and are kept apart here.
# Target: T1, FAAH (Rattus norvegicus, UniProt P97612)
# T1 construct: Preparation of Rat Brain Membranes Preparations (FAAH Enzyme Solution); from tissue; host or cells: rat cerebrum (brain membrane preparation)
# T1 sequence (P97612 1-579): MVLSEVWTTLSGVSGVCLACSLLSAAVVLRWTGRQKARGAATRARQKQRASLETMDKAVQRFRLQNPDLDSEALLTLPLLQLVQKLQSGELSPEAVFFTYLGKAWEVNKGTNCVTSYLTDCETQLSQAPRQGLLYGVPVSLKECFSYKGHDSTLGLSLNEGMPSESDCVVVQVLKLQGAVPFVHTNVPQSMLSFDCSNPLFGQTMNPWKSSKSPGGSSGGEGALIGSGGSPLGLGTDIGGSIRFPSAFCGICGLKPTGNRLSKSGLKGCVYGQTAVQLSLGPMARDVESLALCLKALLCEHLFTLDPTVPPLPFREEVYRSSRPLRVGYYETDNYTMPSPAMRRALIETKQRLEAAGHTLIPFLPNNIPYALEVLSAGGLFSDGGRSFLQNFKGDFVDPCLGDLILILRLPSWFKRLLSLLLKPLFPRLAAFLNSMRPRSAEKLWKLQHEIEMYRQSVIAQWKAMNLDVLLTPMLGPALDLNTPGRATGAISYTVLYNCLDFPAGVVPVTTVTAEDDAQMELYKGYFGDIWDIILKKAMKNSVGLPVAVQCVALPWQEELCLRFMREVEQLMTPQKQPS
# Assay: Determination of FAAH inhibitory activity in rat (rat brain membrane preparations, [3H]-anandamide hydrolysis)
# Assay type: biochemical
# Conditions: for IC50: read-out: FAAH Inhibition IC50
# How it was run: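 Compounds tested from 0.1 nM to 1 μM to derive IC50 against FAAH hydrolysis in rat brain membrane preparations (100 μg/mL). A 10-min 37 °C preincubation was followed by 10 min with [3H]-anandamide (2 nM) mixed with 2 μM unlabelled anandamide. Radioactive ethanolamine was extracted into the water/methanol layer and counted.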
# [1] = rat brain membrane preparations, 100 nM test substance, read-out: FAAH Inhibition, Inhibition Rate at 100 nM
# [2] = rat brain membrane preparations, test substance 0.1 nM to 1 μM
# [3] = read-out: FAAH Inhibition, Inhibition Rate at 100 nM
# [4] = at 100 nM, rat brain membrane preparations, read-out: FAAH Inhibition Inhibition Rate at 100 nM
# [5] = rat brain membrane preparations
smiles,measurement,setting,value
"Cn1c(=O)n(C(=O)N2CCCC2)c2cnc(-c3cccc(F)c3F)nc21 [Example 187, 2-(2,3-Difluorophenyl)-9-methyl-7-(pyrrolidin-1-ylcarbonyl)-7,9-dihydro-8H-purine-8-one]",inhibition at 0.1 µM,[1],100%
same,IC50,[2],7 nM
"CN(CCc1ccc(Cl)cc1)C(=O)n1c(=O)n(C)c2nc(-c3ccncc3)ncc21 [Example 150, N-[2-(4-Chlorophenyl)ethyl]-N,9-dimethyl-8-oxo-2-(pyridin-4-yl)-8,9-dihydro-7H-purine-7-carboxamide]",IC50,[2],< 1 nM
same,inhibition at 0.1 µM,[3],106%
COCc1ncc2c(n1)n(C)c(=O)n2C(=O)N1CC(c2ccc(C(F)(F)F)cc2)C1 [compound 448],inhibition at 0.1 µM,[1],95%
same,IC50,[2],10 nM
"Cn1c(=O)n(C(=O)N2CCN(c3ncccn3)CC2)c2cnc(-c3ccccc3)nc21 [Example 51, 9-Methyl-2-phenyl-7-{[4-(pyrimidin-2-yl)piperazin-1-yl]carbonyl}-7,9-dihydro-8H-purine-8-one]",inhibition at 0.1 µM,[1],97%
same,IC50,[2],25 nM
CCCc1ncc2c(n1)n(C)c(=O)n2C(=O)N1CC(c2ccccc2)C1 [compound 626],inhibition at 0.1 µM,[4],128%
same,IC50,[5],4 nM
Cn1c(=O)n(C(=O)N2CCC2)c2cnc(COc3cccc(OC(F)(F)F)c3)nc21 [compound 412],inhibition at 0.1 µM,[1],56%
same,IC50,[2],78 nM
Cn1c(=O)n(C(=O)N2CC(c3ccccc3)C2)c2nc(C3CC3)ncc21 [Example 631],inhibition at 0.1 µM,[4],77%
same,IC50,[5],36 nM
"COc1cccc(-c2ncc3c(n2)n(C)c(=O)n3C(=O)N2CCC(/C=C/c3ccc(Cl)cc3)CC2)c1 [Example 112, 7-({4-[(E)-2-(4-Chlorophenyl)ethenyl]piperidin-1-yl}carbonyl)-2-(3-methoxyphenyl)-9-methyl-7,9-dihydro-8H-purine-8-one]",inhibition at 0.1 µM,[1],103%
same,IC50,[2],4 nM
"Cn1c(=O)n(C(=O)N2CCC2)c2nc(CCCOc3ccc(F)cc3)ncc21 [Example 401, 9-(Azetidin-1-ylcarbonyl)-2-[3-(4-fluorophenoxy)propyl]-7-methyl-7,9-dihydro-8H-purine-8-one]",inhibition at 0.1 µM,[1],99%
same,IC50,[2],9 nM
"COc1cccc(-c2ncc3c(n2)n(C)c(=O)n3C(=O)N(C)CCc2ccc(Cl)cc2)c1 [Example 69, N-[2-(4-Chlorophenyl)ethyl]-2-(3-methoxyphenyl)-N,9-dimethyl-8-oxo-8,9-dihydro-7H-purine-7-carboxamide]",IC50,[2],2 nM
same,inhibition at 0.1 µM,[3],101%
"COc1cccc(-c2ncc3c(n2)n(C)c(=O)n3C(=O)N(C)CCc2ccncc2)c1 [Example 115, 2-(3-Methoxyphenyl)-N,9-dimethyl-8-oxo-N-[2-(pyridin-4-yl)ethyl]-8,9-dihydro-7H-purine-7-carboxamide]",inhibition at 0.1 µM,[1],103%
same,IC50,[2],5 nM
"COCCCc1ncc2c(n1)n(C)c(=O)n2C(=O)N1CC(c2ccc(C(F)(F)F)cc2)C1 [Example 380, 2-(3-methoxypropyl)-9-methyl-7-({3-[4-(trifluoromethyl)phenyl]azetidin-1-yl}carbonyl)-7,9-dihydro-8H-purine-8-one]",inhibition at 0.1 µM,[1],100%
same,IC50,[2],8 nM
"Cn1c(=O)n(C(=O)N2CCCC2)c2nc(Cc3ccc(F)cc3)ncc21 [Example 295, 2-(4-Fluorobenzyl)-7-methyl-9-(pyrrolidin-1-ylcarbonyl)-7,9-dihydro-8H-purine-8-one]",inhibition at 0.1 µM,[1],91%
same,IC50,[2],43 nM
"COCc1ncc2c(n1)n(C)c(=O)n2C(=O)N1CC(c2ccc(F)c(C)c2)C1 [Example 455, 7-{[3-(4-Fluoro-3-methylphenyl)azetidin-1-yl]carbonyl}-2-(methoxymethyl)-9-methyl-7,9-dihydro-8H-purine-8-one]",inhibition at 0.1 µM,[1],104%
same,IC50,[2],1 nM
"COc1cccc(-c2ncc3c(n2)n(C)c(=O)n3C(=O)N2CCN(Cc3cccc(F)c3)CC2)c1 [Example 85, 7-{[4-(3-Fluorobenzyl)piperazin-1-yl]carbonyl}-2-(3-methoxyphenyl)-9-methyl-7,9-dihydro-8H-purine-8-one]",IC50,[2],31 nM
same,inhibition at 0.1 µM,[3],93%
"CCN(C)C(=O)n1c(=O)n(C)c2nc(-c3ccncc3)ncc21 [Example 220, N-Ethyl-N,9-dimethyl-8-oxo-2-(pyridin-4-yl)-8,9-dihydro-7H-purine-7-carboxamide]",inhibition at 0.1 µM,[1],105%
same,IC50,[2],7 nM
CC(C)Oc1cccc(CCc2ncc3c(n2)n(C(=O)N(C)C)c(=O)n3C)c1 [compound 536],inhibition at 0.1 µM,[1],41%
same,IC50,[2],131 nM
Cc1cccc(CCc2ncc3c(n2)n(C(=O)N2CCC2)c(=O)n3C)c1 [compound 560],inhibition at 0.1 µM,[1],91%
same,IC50,[2],14 nM
"Cc1cccc(-c2ncc3c(n2)n(C(=O)N2CCCC2)c(=O)n3C)c1 [Example 228, 7-Methyl-2-(3-methylphenyl)-9-(pyrrolidin-1-ylcarbonyl)-7,9-dihydro-8H-purine-8-one]",inhibition at 0.1 µM,[1],99%
same,IC50,[2],31 nM
CCOc1cccc(C2CN(C(=O)n3c(=O)n(C)c4nc(COC)ncc43)C2)c1 [compound 451],inhibition at 0.1 µM,[1],95%
same,IC50,[2],12 nM
"COCc1ncc2c(n1)n(C)c(=O)n2C(=O)N1CC(c2ccccc2F)C1 [Example 441, 7-{[3-(2-Fluorophenyl)azetidin-1-yl]carbonyl}-2-(methoxymethyl)-9-methyl-7,9-dihydro-8H-purine-8-one]",inhibition at 0.1 µM,[1],74%
same,IC50,[2],37 nM
"COc1cccc(-c2ncc3c(n2)n(C)c(=O)n3C(=O)N(C)CCC2CCOCC2)c1 [Example 117, 2-(3-Methoxyphenyl)-N,9-dimethyl-8-oxo-N-[2-(tetrahydro-2H-pyran-4-yl)ethyl]-8,9-dihydro-7H-purine-7-carboxamide]",inhibition at 0.1 µM,[1],107%
same,IC50,[2],4 nM
"COCc1ncc2c(n1)n(C)c(=O)n2C(=O)N1CC(c2cccc(C(F)(F)F)c2)C1 [Example 443, 2-(Methoxymethyl)-9-methyl-7-({[3-(3-trifluoromethyl)phenyl]azetidin-1-yl}carbonyl)-7,9-dihydro-8H-purine-8-one]",inhibition at 0.1 µM,[1],98%
same,IC50,[2],7 nM
"CCn1c(=O)n(C(=O)N2CC(c3cccc(F)c3)C2)c2cnc(COC)nc21 [Example 657, 9-Ethyl-7-{[3-(3-fluorophenyl)azetidin-1-yl]carbonyl}-2-(methoxymethyl)-7,9-dihydro-8H-purine-8-one]",inhibition at 0.1 µM,[4],119%
same,IC50,[5],9 nM
Cn1c(=O)n(C(=O)N2CCCC2)c2cnc(-c3ccc(C(F)(F)F)cc3)nc21 [compound 178],inhibition at 0.1 µM,[1],96%
same,IC50,[2],42 nM
COc1ccc(/C=C/c2ncc3c(n2)n(C(=O)N2CCCC2)c(=O)n3C)cc1 [compound 242],inhibition at 0.1 µM,[1],40%
same,IC50,[2],> 100 nM
CN(C)C(=O)n1c(=O)n(C)c2nc(-c3ccccc3)ncc21 [Example 22],inhibition at 0.1 µM,[1],102%
same,IC50,[2],12 nM
CC(C)n1c(=O)n(C(=O)N2CCCC2)c2cnc(-c3ccccc3)nc21 [Example 305],inhibition at 0.1 µM,[1],99%
same,IC50,[2],12 nM
"COc1cccc(-c2ncc3c(n2)n(C)c(=O)n3C(=O)N2CCC(=Cc3ccc(Cl)cc3)CC2)c1 [Example 102, 7-{[4-(4-Chlorobenzylidene)piperidin-1-yl]carbonyl}-2-(3-methoxyphenyl)-9-methyl-7,9-dihydro-8H-purine-8-one]",inhibition at 0.1 µM,[1],101%
same,IC50,[2],5 nM
Cc1ccccc1OCc1ncc2c(n1)n(C(=O)N1CCC1)c(=O)n2C [Example 416],inhibition at 0.1 µM,[1],50%
same,IC50,[2],112 nM
"Cn1c(=O)n(C(=O)N2CCC2)c2nc(CCc3ccc(F)cc3)ncc21 [Example 587, 9-(Azetidin-1-ylcarbonyl)-2-[2-(4-fluorophenyl)ethyl]-7-methyl-7,9-dihydro-8H-purine-8-one]",inhibition at 0.1 µM,[1],68%
same,IC50,[2],51 nM
"COc1cccc(OCc2ncc3c(n2)n(C)c(=O)n3C(=O)N2CCC2)c1 [Example 404, 7-(Azetidin-1-ylcarbonyl)-2-[(3-methoxyphenoxy)methyl]-9-methyl-7,9-dihydro-8H-purine-8-one]",inhibition at 0.1 µM,[1],96%
same,IC50,[2],10 nM
"COc1cccc(-c2ncc3c(n2)n(C)c(=O)n3C(=O)N(C)CCc2ccc(Cl)cc2Cl)c1 [Example 110, N-[2-(2,4-Dichlorophenyl)ethyl]-2-(3-methoxyphenyl)-N,9-dimethyl-8-oxo-8,9-dihydro-7H-purine-7-carboxamide]",inhibition at 0.1 µM,[1],103%
same,IC50,[2],3 nM
"CCn1c(=O)n(C(=O)N2CC(c3ccccc3)C2)c2cnc(COC)nc21 [Example 655, 9-Ethyl-2-(methoxymethyl)-7-[(3-phenylazetidin-1-yl)carbonyl]-7,9-dihydro-8H-purine-8-one]",inhibition at 0.1 µM,[4],102%
same,IC50,[5],10 nM
Cn1c(=O)n(C(=O)N2CC(c3ccc(F)cc3)C2)c2nc(C3CC3)ncc21 [Example 630],inhibition at 0.1 µM,[4],102%
same,IC50,[5],10 nM
